Laboratory results from patent EP0938471B1, “THE PREPARATION AND USE OF ORTHO-SULFONAMIDO ARYL HYDROXAMIC ACIDS AS MATRIX METALLOPROTEINASE AND TACE INHIBITORS” (priority 1996, dated 1998).
Where two headings read alike, the source gives them in different places.

Legend:
Type in all cases: biochemical
MMP-1 = target: T1, MMP-1 (Homo sapiens, UniProt P03956); assay: MMP-1 inhibition (thiopeptide or fluorescent peptide substrate assay)
T1 sequence (P03956 100-469): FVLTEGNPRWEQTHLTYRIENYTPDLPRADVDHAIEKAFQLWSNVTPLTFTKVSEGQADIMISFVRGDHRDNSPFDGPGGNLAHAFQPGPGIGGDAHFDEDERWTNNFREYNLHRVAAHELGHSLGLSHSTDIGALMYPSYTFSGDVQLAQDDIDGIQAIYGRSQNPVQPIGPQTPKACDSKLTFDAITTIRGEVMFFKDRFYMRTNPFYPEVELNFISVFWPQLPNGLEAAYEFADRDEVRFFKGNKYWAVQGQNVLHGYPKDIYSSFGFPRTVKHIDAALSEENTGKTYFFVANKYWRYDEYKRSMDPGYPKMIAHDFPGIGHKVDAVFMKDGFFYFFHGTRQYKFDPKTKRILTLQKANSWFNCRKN

TACE = TACE (Homo sapiens, UniProt P78536); assay: TACE inhibition (fluorescent peptidyl substrate); conditions: for inhibition at 1 µM: at 1µM concentration
MMP-13 = MMP-13 (Homo sapiens, UniProt P45452); assay: MMP-13 inhibition (thiopeptide or fluorescent peptide substrate assay)
MMP-9 = MMP-9 (Homo sapiens, UniProt P14780); assay: MMP-9 inhibition (thiopeptide or fluorescent peptide substrate assay)
MMP-9, sequence (P14780 94-707): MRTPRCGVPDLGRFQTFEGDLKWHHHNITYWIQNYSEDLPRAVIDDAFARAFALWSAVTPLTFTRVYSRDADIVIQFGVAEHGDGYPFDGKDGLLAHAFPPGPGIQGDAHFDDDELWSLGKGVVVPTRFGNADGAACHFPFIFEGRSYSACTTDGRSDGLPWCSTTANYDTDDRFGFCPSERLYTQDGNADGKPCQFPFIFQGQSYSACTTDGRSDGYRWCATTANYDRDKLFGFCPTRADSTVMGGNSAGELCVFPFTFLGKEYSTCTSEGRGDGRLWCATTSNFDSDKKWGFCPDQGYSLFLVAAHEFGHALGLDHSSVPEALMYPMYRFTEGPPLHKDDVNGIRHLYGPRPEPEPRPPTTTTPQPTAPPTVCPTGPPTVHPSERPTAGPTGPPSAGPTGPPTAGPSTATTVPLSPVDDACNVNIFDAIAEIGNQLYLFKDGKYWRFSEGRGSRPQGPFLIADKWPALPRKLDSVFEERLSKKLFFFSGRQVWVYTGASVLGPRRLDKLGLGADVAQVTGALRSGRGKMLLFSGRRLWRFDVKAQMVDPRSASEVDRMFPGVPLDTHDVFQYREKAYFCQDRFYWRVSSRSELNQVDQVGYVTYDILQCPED

TACE, sequence (P78536 215-824): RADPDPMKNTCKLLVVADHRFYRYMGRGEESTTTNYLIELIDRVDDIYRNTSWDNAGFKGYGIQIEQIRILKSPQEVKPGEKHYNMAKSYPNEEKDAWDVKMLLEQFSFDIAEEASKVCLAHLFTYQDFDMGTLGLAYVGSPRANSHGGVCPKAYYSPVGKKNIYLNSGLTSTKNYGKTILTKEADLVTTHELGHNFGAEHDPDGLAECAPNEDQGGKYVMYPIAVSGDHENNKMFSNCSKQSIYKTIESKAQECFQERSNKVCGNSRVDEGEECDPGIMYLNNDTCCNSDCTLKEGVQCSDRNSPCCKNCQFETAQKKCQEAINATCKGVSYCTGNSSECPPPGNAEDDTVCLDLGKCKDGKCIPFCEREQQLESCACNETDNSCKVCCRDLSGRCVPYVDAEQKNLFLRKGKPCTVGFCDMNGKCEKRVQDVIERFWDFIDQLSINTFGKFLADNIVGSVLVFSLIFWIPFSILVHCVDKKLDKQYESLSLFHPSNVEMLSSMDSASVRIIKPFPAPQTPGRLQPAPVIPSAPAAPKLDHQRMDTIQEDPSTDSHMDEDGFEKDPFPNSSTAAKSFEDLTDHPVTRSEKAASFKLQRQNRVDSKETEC

SMILES | IC50 (MMP-1; read-out: MMP-1 IC50) | inhibition at 1 µM (TACE) | IC50 (MMP-13; read-out: MMP-13 IC50) | IC50 (MMP-9; read-out: MMP-9 IC50) | IC50 (TACE; read-out: TACE IC50) | IC50 (MMP-1) | IC50 (TACE) | IC50 (MMP-13) | IC50 (MMP-9)
COc1ccc(S(=O)(=O)N(Cc2ccccc2)c2c(OC(C)(C)C(=O)NO)cccc2C(=O)NO)cc1 [Example 197] | 0.711 µM | 32% | 0.006 µM | 0.005 µM |  |  |  |  | 
CCCCCCCCN(C)C(=O)C=Cc1cc(C)c(N(C)S(=O)(=O)c2ccc(OC)cc2)c(C(=O)NO)c1 [Example 207, N-Hydroxy-2-[(4-methoxy-benzenesulfonyl)-methyl-amino]-3-methyl-5-[2-(methyl-octyl-carbamoyl)-vinyl]-benzamide] | 1.12 µM |  | 0.0025 µM | 0.002 µM | 0.375 µM |  |  |  | 
CCCCCCCCN(C)C(=O)CCc1cc(C)c(N(C)S(=O)(=O)c2ccc(OC)cc2)c(C(=O)NO)c1 [Example 212, N-Hydroxy-2-[(4-methoxy-benzenesulfonyl)-methyl-amino]-3-methyl-5-[2-(methyl-octyl-carbamoyl)-ethyl]-benzamide] | 0.415 µM |  | 0.011 µM | 0.0052 µM | 0.314 µM |  |  |  | 
COc1ccc(S(=O)(=O)N(C)c2c(C)cc(C=CC(=O)N(C)C)cc2C(=O)O)cc1 [Example 214, 5-(2-Dimethylcarbamoyl-vinyl)-2-[(4-methoxy-benzenesulfonyl)-methyl-amino]-3-methyl-benzoic acid] |  |  |  |  |  | 0.423 µM | 0.232 µM | 0.019 µM | 0.0064 µM
CCN(Cc1ccncc1)C(=O)C=Cc1cc(C)c(N(C)S(=O)(=O)c2ccc(OC)cc2)c(C(=O)NO)c1 [Example 219, 5-[2-(Ethyl-pyridin-4-ylmethyl-carbamoyl)-vinyl]-N-hydroxy-2-[(4-methoxy-benzenesulfonyl)-methyl-amino]-3-methyl-benzamide] | 0.29 µM |  | 0.0058 µM | 0.0067 µM | 0.548 µM |  |  |  | 
CCCCCCCCN(C)C(=O)C=Cc1cc(C)c(N(Cc2cccnc2)S(=O)(=O)c2ccc(OC)cc2)c(C(=O)NO)c1 [Example 224, N-Hydroxy-2-[(4-methoxy-benzenesulfonyl)-pyridin-3-ylmethyl-amino]-3-methyl-5-[2-(methyl-octyl-carbamoyl)-vinyl]-benzamide] | 0.957 µM |  | 0.014 µM | 0.011 µM | 0.715 µM |  |  |  | 
COc1ccc(S(=O)(=O)N(Cc2cccnc2)c2c(C)cc(C=CC(=O)N(C)C)cc2C(=O)NO)cc1 [Example 227, 5-(2-Dimethylcarbamoyl-vinyl)-N-hydroxy-2-[(4-methoxy-benzenesulfonyl)-pyridin-3-ylmethyl-amino]-3-methyl-benzamide] | 0.193 µM |  | 0.0041 µM | 0.0031 µM | 0.446 µM |  |  |  | 
COc1ccc(S(=O)(=O)N(Cc2cccnc2)c2c(C)cc(-c3ccccc3C=NO)cc2C(=O)NO)cc1 [Example 243, 2'-(Hydroxyimino-methyl)-4-[(4-methoxy-benzenesulfonyl)-pyridin-3-ylmethyl-amino]-5-methyl-biphenyl-3-carboxylic acid hydroxyamide] | 0.528 µM |  | 0.0031 µM | 0.0066 µM | 0.066 µM |  |  |  | 
COc1ccc(S(=O)(=O)N(Cc2cccnc2)c2c(C)cc(-c3ccc(C=NO)cc3)cc2C(=O)NO)cc1 [Example 249, 4'-(Hydroxyimino-methyl)-4-[(4-methoxy-benzenesulfonyl)-pyridin-3-ylmethyl-amino]-5-methyl-biphenyl-3-carboxylic acid hydroxyamide] | 0.231 µM |  | 0.006 µM | 0.0028 µM | 0.1 µM |  |  |  | 
COc1ccc(S(=O)(=O)N(Cc2cccnc2)c2c(C)cc(-c3ccccc3C(F)(F)F)cc2C(=O)NO)cc1 [Example 252, 4-[(4-Methoxy-benzenesulfonyl)-pyridin-3-ylmethyl-amino]-5-methyl-2'-trifluoromethyl-biphenyl-3-carboxylic acid hydroxyamide] | 0.652 µM |  | 0.01 µM | 0.015 µM | 0.346 µM |  |  |  | 
COc1ccc(S(=O)(=O)N(Cc2cccnc2)c2c(C)cc(-c3sccc3C=NO)cc2C(=O)NO)cc1 [Example 258, N-Hydroxy-5-[3-(hydroxyimino-methyl)-thiophen-2-yl]-2-[(4-methoxy-benzenesulfonyl)-pyridin-3-ylmethyl-amino]-3-methyl-benzamide] | 0.169 µM |  | 0.007 µM | 0.008 µM | 0.11 µM |  |  |  | 
COc1ccc(S(=O)(=O)N(Cc2cccnc2)c2c(C)cc(-c3ccc(Cl)s3)cc2C(=O)NO)cc1 [Example 261, 5-(5-Chloro-thiophen-2-yl)-N-hydroxy-2-[(4-methoxy-benzenesulfonyl)-pyridin-3-ylmethyl-amino]-3-methyl-benzamide] | 0.247 µM |  | 0.0028 µM | 0.0013 µM | 0.054 µM |  |  |  | 
COc1ccc(S(=O)(=O)N(Cc2cccnc2)c2c(C)cc(-c3cccnc3)cc2C(=O)NO)cc1 [Example 285, N-Hydroxy-2-[(4-methoxy-benzenesulfonyl)-pyridin-3-ylmethyl-amino]-3-methyl-5-pyridin-3-yl-benzamide] | 0.312 µM |  | 0.0098 µM | 0.006 µM | 0.061 µM |  |  |  | 
COc1ccc(S(=O)(=O)N(Cc2ccccc2)c2c(C)ccc(C)c2C(=O)NO)cc1 [Example 292, 2-[Benzyl-(4-methoxy-benzenesulfonyl)-amino]-N-hydroxy-3,6-dimethyl-benzamide] | 0.184 µM | 7% | 0.029 µM | 0.008 µM |  |  |  |  | 
COc1ccc(S(=O)(=O)N(Cc2cccnc2)c2c(C)ccc(C)c2C(=O)NO)cc1 [Example 297, N-Hydroxy-2-[(4-methoxy-benzenesulfonyl)-pyridin-3-ylmethyl-amino]-3,6-dimethyl-benzamide] | 0.297 µM | 58% | 0.014 µM | 0.009 µM |  |  |  |  | 
COc1ccc(S(=O)(=O)N(Cc2cccnc2)c2c(C)cc(-c3cc(-c4ccc(C)o4)no3)cc2C(=O)NO)cc1 [Example 301, N-Hydroxy-2-[(4-methoxy-benzenesulfonyl)-pyridin-3-ylmethyl-amino]-3-methyl-5-[3-(5-methyl-furan-2-yl)-isoxazol-5-yl]-benzamide] | 0.211 µM |  | 0.0087 µM | 0.0069 µM | 1.48 µM |  |  |  | 

Further lines, with some results ahead:

IC50 (MMP-1; read-out: MMP-1 IC50) | inhibition at 1 µM (TACE) | IC50 (MMP-13; read-out: MMP-13 IC50) | IC50 (MMP-9; read-out: MMP-9 IC50) | IC50 (TACE; read-out: TACE IC50) | SMILES | IC50 (MMP-1) | IC50 (TACE) | IC50 (MMP-13) | IC50 (MMP-9)
0.104 µM |  | 0.027 µM | 0.011 µM | 1 µM | COc1ccc(S(=O)(=O)N(Cc2ccccc2)c2c(Br)cccc2C(=O)NO)cc1 [Example 201, 3-Bromo-2-[benzyl-(4-methoxybenzenesulfonyl)amino]-N-hydroxy-benzamide] |  |  |  | 
0.02 µM | 47% | 0.0019 µM | 0.0024 µM |  | CCN(C(=O)C=Cc1cc(C)c(N(Cc2cccnc2)S(=O)(=O)c2ccc(OC)cc2)c(C(=O)NO)c1)c1ccccc1 [Example 230, 5-[2-(Ethyl-phenyl-carbamoyl)-vinyl]-N-hydroxy-2-[(4-methoxy-benzenesulfonyl)-pyridin-3-ylmethyl-amino]-3-methyl-benzamide] |  |  |  | 
0.032 µM |  | 0.0018 µM | 0.0023 µM | 0.45 µM | C=CCN(CC=C)C(=O)C=Cc1cc(C)c(N(Cc2cccnc2)S(=O)(=O)c2ccc(OC)cc2)c(C(=O)NO)c1 [Example 233, 5-(2-Diallylcarbamoyl-vinyl)-N-hydroxy-2-[(4-methoxy-benzenesulfonyl)-pyridin-3-ylmethyl-amino]-3-methyl-benzamide] |  |  |  | 
0.086 µM |  | 0.0016 µM | 0.0035 µM | 0.548 µM | COc1ccc(S(=O)(=O)N(Cc2cccnc2)c2c(C)cc(C=CC(=O)N3CCOCC3)cc2C(=O)NO)cc1 [Example 240] |  |  |  | 
0.106 µM |  | 0.0036 µM | 0.006 µM | 0.056 µM | COc1ccc(S(=O)(=O)N(Cc2cccnc2)c2c(C)cc(-c3cccc(C=NO)c3)cc2C(=O)NO)cc1 [Example 246, 3'-(Hydroxyimino-methyl)-4-[(4-methoxy-benzenesulfonyl)-pyridin-3-ylmethyl-amino]-5-methyl-biphenyl-3-carboxylic acid hydroxyamide] |  |  |  | 
0.048 µM |  | 0.0032 µM | 0.0071 µM | 0.065 µM | COc1ccc(S(=O)(=O)N(Cc2cccnc2)c2c(C)cc(-c3ccco3)cc2C(=O)NO)cc1 [Example 255, 5-Furan-2-yl-N-hydroxy-2-[(4-methoxy-benzenesulfonyl)-pyridin-3-ylmethyl-amino]-3-methyl-benzamide] |  |  |  | 
0.159 µM |  | 0.0064 µM | 0.0037 µM | 0.077 µM | COc1ccc(S(=O)(=O)N(Cc2cccnc2)c2c(C)cc(-c3ccc(C(C)=O)s3)cc2C(=O)NO)cc1 [Example 264, 5-(5-Acetyl-thiophen-2-yl)-N-hydroxy-2-[(4-methoxy-benzenesulfonyl)-pyridin-3-ylmethyl-amino]-3-methyl-benzamide] |  |  |  | 
0.059 µM |  | 0.013 µM | 0.003 µM | 0.136 µM | C=Cc1cc(C)c(N(Cc2ccccc2)S(=O)(=O)c2ccc(OC)cc2)c(C(=O)NO)c1 [Example 267, 2-[Benzyl-(4-methoxy-benzenesulfonyl)-amino]-N-hydroxy-3-methyl-5-vinyl-benzamide] |  |  |  | 
0.056 µM |  | 0.004 µM | 0.004 µM | 0.034 µM | CCc1cc(C)c(N(Cc2cccnc2)S(=O)(=O)c2ccc(OC)cc2)c(C(=O)NO)c1 [Example 277, 5-Ethyl-N-hydroxy-2-[(4-methoxy-benzenesulfonyl)-pyridin-3-ylmethyl-amino]-3-methyl-benzamide] |  |  |  | 
